In publication PMC6332424, “Synthesis and Evaluation of New Pyrazoline Derivatives as Potential Anticancer Agents” (Molecules, 2015):
Entries after “also recorded” stand apart in the source; their conditions may differ. Blank lines part the entries; values can stand above or below the molecule they belong to.

Experiments:
[1] = tested on: AsPC-1 human pancreatic adenocarcinoma cell line; experiment: MTT assay for cytotoxicity, AsPC-1 cells; assay type: cell-based; settings: 24 h incubation, read-out: IC50 AsPC1 Cell Line
Protocol: (§1) U251 and U87 human glioblastoma cells were incubated in Dulbecco’s-modified Eagle’s medium (DMEM) (Wako Pure Chemical Industries, Osaka, Japan) supplemented with 10% fetal bovine serum (FBS) (Equitech-Bio, Kerrville, TX, USA). AsPC-1 human pancreas adenocarcinoma and Jurkat human leukemic T-cells were incubated RPMI 1640 (Wako Pure Chemical Industries), supplemented with 10% FBS. Peripheral blood mononuclear cells (PBMC) (Precision Bioservices, Frederick, MD, USA) were incubated RPMI 1640 and supplemented with 10% human serum AB (HS) (Gemini, Woodland, CA, USA). All media were supplemented with 89 µg/mL streptomycin (Meiji Seika Pharma, Tokyo, Japan) and cells were incubated at 37 °C in a humidified atmosphere of 95% air and 5% CO2. Growing cells were plated at 1 × 10^5 cells/mL into 24-well microtiter tissue culture plates (Iwaki brand Asahi Glass Co., Chiba, Japan) and incubated for 24 h before the addition of the drugs (the optimal cell number for cytotoxicity assays was determined in preliminary experiments). Stock solutions (1 mM, 5 mM, 10 mM, 20 mM, and 50 mM) of compounds and cisplatin (Sigma-Aldrich, St. Louis, MO, USA) were prepared in dimethyl sulfoxide (DMSO; Wako Pure Chemical Industries) and in dimethylformamide (DMF; Wako Pure Chemical Industries) respectively, then were added to fresh culture medium. The concentration of DMSO and DMF in the final culture medium was 1%. The level of cellular reduction of 3-(4,5-dimethylthiazol-2-yl)-2,5-diphenyltetrazolium bromide (MTT) (Dojindo Molecular Technologies, Kumamoto, Japan) was quantified as previously described in the literature with small modifications. The tested compounds were incubated with cells to give a final concentration in the range 50–500 µM for 24 h. At the end of this period, MTT was added to cells in culture to give a final concentration of 0.275 mg/mL and incubated further for 4 h at 37 °C. The medium was removed and the formazan crystals were solubilized by addition of 100 µL DMSO to each well. After the solubilized crystals were diluted (1:10) with DMSO, 100 µL was transferred to wells of 96-well microtiter plates (Iwaki brand Asahi Glass Co.) and the absorbance at 550 nm was measured using a microplate spectrophotometer Infinitive M1000 (Tecan, Groding, Austria). Every concentration was repeated in three wells and IC50 values were defined as the drug concentrations which reduced absorbance to 50 % of control values.

[2] = tested on: U87 human glioblastoma cell line; experiment: MTT assay for cytotoxicity, U87 cells; assay type: cell-based; settings: for IC50: MTT, 24 h incubation
Protocol: as §1

[3] = tested on: U251 human glioblastoma cell line; experiment: MTT assay for cytotoxicity, U251 cells; assay type: cell-based; settings: 24 h incubation
Protocol: as §1

[4] = tested on: peripheral blood mononuclear cells (PBMC); experiment: MTT cell viability, PBMC (tumor selectivity); assay type: cell-based, human; settings: Figure 3b, read-out: IC50 against PBMC
Protocol: (§2) U251 and U87 human glioblastoma cells were incubated in Dulbecco’s-modified Eagle’s medium (DMEM) (Wako Pure Chemical Industries, Osaka, Japan) supplemented with 10% fetal bovine serum (FBS) (Equitech-Bio, Kerrville, TX, USA). AsPC-1 human pancreas adenocarcinoma and Jurkat human leukemic T-cells were incubated RPMI 1640 (Wako Pure Chemical Industries), supplemented with 10% FBS. Peripheral blood mononuclear cells (PBMC) (Precision Bioservices, Frederick, MD, USA) were incubated RPMI 1640 and supplemented with 10% human serum AB (HS) (Gemini, Woodland, CA, USA). […] Growing cells were plated at 1 × 10^5 cells/mL into 24-well microtiter tissue culture plates (Iwaki brand Asahi Glass Co., Chiba, Japan) and incubated for 24 h before the addition of the drugs (the optimal cell number for cytotoxicity assays was determined in preliminary experiments). […] The level of cellular reduction of 3-(4,5-dimethylthiazol-2-yl)-2,5-diphenyltetrazolium bromide (MTT) (Dojindo Molecular Technologies, Kumamoto, Japan) was quantified as previously described in the literature with small modifications. […] After the solubilized crystals were diluted (1:10) with DMSO, 100 µL was transferred to wells of 96-well microtiter plates (Iwaki brand Asahi Glass Co.) and the absorbance at 550 nm was measured using a microplate spectrophotometer Infinitive M1000 (Tecan, Groding, Austria). […]

[5] = tested on: Jurkat human leukemic T-cells; experiment: MTT cell viability, Jurkat cells (tumor selectivity); assay type: cell-based
Protocol: as §2

U251 cells = experiment: Detection of apoptotic and necrotic cells (annexin V/ethidium homodimer III staining); assay type: cell-based, human
Text: U251 cells were stained and observed by fluorescence microscope (Figure 4). If the cells are colored green with annexin V, and not stained red with ethidium homodimer III, the cells are judged to be apoptotic. […] The apoptotic and necrotic effects of compound 11 were compared with cisplatin. […] Then, apoptotic/necrotic/healthy cells detection kit protocol was applied according to the manufacturer’s instruction manual (PromoKine, Heidelberg, Germany). After the cells were washed twice with 1 × binding buffer, a staining solution containing 50 µL of 1 × binding buffer, 2 µL of FTIC-Annexin V solution, 2 µL of ethidium homodimer III solution and 2 µL of Hoechst 33342 solution was added and the cells were incubated for 15 min at RT, protected from light. Cells were washed with 1 × binding buffer and analyzed by all-in-one fluorescence microscope Biorevo Fluorescence BZ-9000 (Keyence, Osaka, Japan).

supercoiled pUC19 DNA = experiment: DNA cleavage assay (agarose gel electrophoresis); assay type: biochemical; settings: 37 °C, 1.5 h
Protocol: The DNA cleavage activities of compound 11 and cisplatin at the IC50 concentrations in water and Tris/boric acid buffer in the presence and absent of the iron complex, H2O2 and ascorbic acid as an activator were studied using supercoiled pUC19 DNA (Figure 5). The reaction mixture was incubated at 37 °C for 1.5 h and then agarose gel electrophoresis was performed at 100 V for 40 min. DNA was visualized by photographing the fluorescence of intercalated ethidium bromide under a UV illuminator. […] Thus, it is considered that DNA-cleavage was caused by oxygen activation.
The DNA cleavage activities of the compounds were studied using supercoiled pUC19 DNA and analyzed by agarose (Takara, Kyoto, Japan) gel electrophoresis Mupid-2x (Mupid, Tokyo, Japan). pUC19 DNA (2 µg) was treated with compounds in water and Tris/boric acid (Nacalai Tesque, Kyoto, Japan) buffer (10 mM, pH 8.5) in the presence and absence of iron (II) sulfate heptahydrate (FeSO4·7H2O; 30 µM) (Wako Pure Chemical Industries), hydrogen peroxide (H2O2; 30 µM) (Tokyo Chemical Industry Co., Tokyo, Japan) and ascorbic acid (30 µM) (Tokyo Chemical Industry Co.) as an activator. […] DNA was visualized by photographing the fluorescence of intercalated ethidium bromide under a UV illuminator (Nippon Genetics Co., Tokyo, Japan).

[6] = tested on: AsPC-1, U87 and U251 cell lines; experiment: MTT assay, overall activity on the three cell lines (in words); assay type: cell-based, human; settings: 10–500 µM, all three cell lines
Protocol: as §2

Molecule: 1-[(1-(2-(Dimethylamino)ethyl)-1H-tetrazol-5-yl)thioacetyl]-3-(2-thienyl)-5-(4-chlorophenyl)-2-pyrazoline [Compound 5]
- IC50 [1]: 216 ± 29.7 µM
- IC50 [2]: > 500 µM
- IC50 [3]: > 500 µM

Molecule: 1-[(1-(4-Hydroxyphenyl)-1H-tetrazol-5-yl)thioacetyl]-3-(2-thienyl)-5-(4-chlorophenyl)-2-pyrazoline [Compound 4]
- IC50 [1]: 65 ± 5.4 µM
- IC50 [2]: > 500 µM
- IC50 [3]: > 500 µM

Molecule: 1-[(1-Methyl-1H-tetrazol-5-yl)thioacetyl]-3-(2-thienyl)-5-(4-chlorophenyl)-2-pyrazoline [Compound 2]
- IC50 [1]: > 500 µM
- IC50 [2]: > 500 µM
- IC50 [3]: > 500 µM

Molecule: 1-[(1-Phenyl-1H-tetrazol-5-yl)thioacetyl]-3-(2-thienyl)-5-(4-chlorophenyl)-2-pyrazoline [Compound 3]
- IC50 [1]: > 500 µM
- IC50 [2]: > 500 µM
- IC50 [3]: > 500 µM

Molecule: 1-[(5-(4-Chlorophenyl)-1,3,4-oxadiazol-2-yl)thioacetyl]-3-(2-thienyl)-5-(4-chlorophenyl)-2-pyrazoline [Compound 10]
- IC50 [2]: 251 ± 30.4 µM

Molecule: 1-[(5-(4-Methoxyphenyl)-1,3,4-oxadiazol-2-yl)thioacetyl]-3-(2-thienyl)-5-(4-chlorophenyl)-2-pyrazoline [Compound 12]
- cytotoxicity on U87 cell line (in words) [2]: no significant cytotoxicity

- IC50 ([5]; MTT, Figure 3b, read-out: IC50 against Jurkat human leukemic T-cells): 90 µM
Molecule: 1-[(5-(4-Methylphenyl)-1,3,4-oxadiazol-2-yl)thioacetyl]-3-(2-thienyl)-5-(4-chlorophenyl)-2-pyrazoline [Compound 11]
- IC50 [4]: ~1000 µM
- tumor selectivity in blood cells (PBMC vs Jurkat) ([5]; ratio of IC50 PBMC to IC50 Jurkat): more than 10 times
- apoptotic/necrotic effect (U251 cells; IC50 (11.9 µM, high concentration), 3 h): mainly induced necrosis
- apoptotic/necrotic effect (U251 cells; IC50 concentration, 24 h): late stage apoptotic or necrotic effect
- apoptotic/necrotic effect (U251 cells; low concentration (1.5 µM), 3 h): exhibited apoptotic phenotype; also recorded: induced apoptosis; also recorded: showed apoptotic activity
- DNA-cleaving efficiency compared with cisplatin (supercoiled pUC19 DNA; IC50 concentrations, iron (II) complex system): more significant than cisplatin; also recorded: much greater than cisplatin
- DNA cleavage efficiency with vs without FeSO4, H2O2 and ascorbic acid (supercoiled pUC19 DNA; pUC19 DNA, 30 µM each activator): clearly enhanced
- cytotoxic activity (in words) [6]: good activity

Molecule: 1-[(5-(Pyridin-3-yl)-1,3,4-oxadiazol-2-yl)thioacetyl]-3-(2-thienyl)-5-(4-chlorophenyl)-2-pyrazoline [Compound 9]
- IC50 [1]: 108 ± 30.1 µM
- IC50 [2]: > 500 µM
- IC50 [3]: > 500 µM

Molecule: 1-[(5-Methyl-1,3,4-thiadiazol-2-yl)thioacetyl]-3-(2-thienyl)-5-(4-chlorophenyl)-2-pyrazoline [Compound 6]
- IC50 [1]: 199 ± 32.8 µM
- IC50 [2]: > 500 µM
- IC50 [3]: > 500 µM

Molecule: 1-[(5-Phenyl-1,3,4-oxadiazol-2-yl)thioacetyl]-3-(2-thienyl)-5-(4-chlorophenyl)-2-pyrazoline [Compound 8]
- IC50 [1]: 139 ± 26.8 µM
- IC50 [2]: > 500 µM
- IC50 [3]: 393 ± 60.4 µM

Molecule: 1-[(Pyrimidin-2-yl)thioacetyl]-3-(2-thienyl)-5-(4-chlorophenyl)-2-pyrazoline [Compound 7]
- IC50 [1]: 236 ± 36.4 µM
- IC50 [2]: > 500 µM
- IC50 [3]: > 500 µM

Molecule: N.N.[Cl][Pt][Cl] [Cisplatin, reference compound]
- IC50 [1]: 22.5 ± 2 µM
- IC50 [2]: 14.8 ± 1.4 µM
- IC50 [3]: 4.9 ± 1 µM
- apoptotic/necrotic effect (U251 cells; IC50 concentration, 24 h): only apoptotic effects
